From PubChem BioAssay AID248 (DTP/NCI, 2004)
Where “and” joins values, the source holds several entries; their conditions need not be identical. Identical values can stand only once. Inconclusive results and toxic doses are left out.

Tested on: L1210 leukemia ip in BDF1 mice, survival T/C
Assay: NCI In Vivo Anticancer Drug Screen. Data for tumor model L1210 Leukemia (intraperitoneal) in B6D2F1 (BDF1) mice
Settings: endpoint: mean survival time, higher = longer survival
Summary of the method: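 In this screen, tumor-bearing mice given compound are compared to those given vehicle, and their survival values are reported as a treated-to-control quotient.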

[1] = dose: 100.0 mg/kg/injection, schedule: Q04DX003 (ip), vehicle: Klucel (hydroxypropylcellulose) (HPC)
[2] = dose: 200.0 mg/kg/injection, schedule: Q04DX003 (ip), vehicle: Klucel (hydroxypropylcellulose) (HPC)
[3] = dose: 100.0 mg/kg/injection, schedule: Q04DX002 (ip), vehicle: Klucel (hydroxypropylcellulose) (HPC)
[4] = dose: 200.0 mg/kg/injection, schedule: Q04DX002 (ip), vehicle: Klucel (hydroxypropylcellulose) (HPC)
[5] = dose: 400.0 mg/kg/injection, schedule: Q04DX002 (ip), vehicle: Klucel (hydroxypropylcellulose) (HPC)
[6] = dose: 200.0 mg/kg/injection, schedule: Q04DX003 (ip), vehicle: saline with Tween-80
[7] = dose: 400.0 mg/kg/injection, schedule: Q04DX003 (ip), vehicle: Klucel (hydroxypropylcellulose) (HPC)
[8] = dose: 100.0 mg/kg/injection, schedule: Q01DX001 (ip), vehicle: saline with Tween-80
[9] = dose: 100.0 mg/kg/injection, schedule: Q04DX003 (ip), vehicle: saline

CC(C)N(C(=O)COc1ccc(Cl)cc1)c1ccccc1
T/C (dose: 50.0 mg/kg/injection, schedule: Q01DX009 (ip), vehicle: Klucel (hydroxypropylcellulose) (HPC)): 103 % of control
T/C (dose: 100.0 mg/kg/injection, schedule: Q01DX009 (ip), vehicle: Klucel (hydroxypropylcellulose) (HPC)): 104 % of control
T/C [1]: 108 % of control
T/C (dose: 200.0 mg/kg/injection, schedule: Q01DX009 (ip), vehicle: Klucel (hydroxypropylcellulose) (HPC)): 92 % of control
T/C [2]: 93 % of control

CCCCCCCCCC(O)CCCC(O)C(O)CCCCCCC(=O)O (configuration not stated)
T/C [3]: 91 % of control
T/C [4]: 91 % of control
T/C [5]: 91 % of control

[CH3][Sb]([CH3])([CH3])([O]C(=O)C(Cl)Cl)[O]C(=O)C(Cl)Cl
T/C (dose: 100.0 mg/kg/injection, schedule: Q04DX003 (ip), vehicle: saline with Tween-80): 105 % of control
T/C [6]: 108 % of control
T/C (dose: 400.0 mg/kg/injection, schedule: Q04DX003 (ip), vehicle: saline with Tween-80): 103 % of control

Cc1ccc(C)c(OCC(=O)O)c1
T/C [1]: 97 % of control
T/C [2]: 101 % of control
T/C [7]: 101 % of control

Cc1cccc(C)c1NC(=O)OCCOc1ccc(Br)cc1
T/C (dose: 100.0 mg/kg/injection, schedule: Q01DX009 (ip), vehicle: saline with Tween-80): 95 % of control
T/C (dose: 200.0 mg/kg/injection, schedule: Q01DX009 (ip), vehicle: saline with Tween-80): 92 % of control
T/C (dose: 400.0 mg/kg/injection, schedule: Q01DX009 (ip), vehicle: saline with Tween-80): 92 % of control

c1ccc(C2SCc3ccc(cc3)Sc3ccc(cc3)CS2)cc1
T/C [8]: 91 % of control
T/C (dose: 200.0 mg/kg/injection, schedule: Q01DX001 (ip), vehicle: saline with Tween-80): 88 % of control
T/C (dose: 400.0 mg/kg/injection, schedule: Q01DX001 (ip), vehicle: saline with Tween-80): 91 % of control

C=C1CC(Cc2ccccc2)OC1=O (configuration not stated)
T/C [8]: 94 % of control

O=C1c2ccccc2C(=O)N1CCl
T/C (dose: 100.0 mg/kg/injection, schedule: Q01DX001 (ip), vehicle: Klucel (hydroxypropylcellulose) (HPC)): 93 % of control
T/C (dose: 200.0 mg/kg/injection, schedule: Q01DX001 (ip), vehicle: Klucel (hydroxypropylcellulose) (HPC)): 104 % of control
T/C (dose: 400.0 mg/kg/injection, schedule: Q01DX001 (ip), vehicle: Klucel (hydroxypropylcellulose) (HPC)): 114 % of control

ClC1(Cl)C2(c3ccccc3)OC(c3ccccc3)(c3ccccc32)C1(Cl)Cl
T/C [3]: 97 % of control
T/C [4]: 97 % of control
T/C [5]: 102 % of control

CC(C)CCCC(C)C1CCC2C3CC=C4CC(OC(=O)C(Cl)(Cl)Cl)CCC4(C)C3CCC12C (configuration not stated)
T/C (dose: 40.0 mg/kg/injection, schedule: Q01DX009 (sc), vehicle: steriod suspending solution): 94 % of control
T/C (dose: 50.0 mg/kg/injection, schedule: Q04DX003 (sc), vehicle: steriod suspending solution): 98 % of control
T/C (dose: 75.0 mg/kg/injection, schedule: Q01DX009 (sc), vehicle: steriod suspending solution): 101 % of control
T/C (dose: 100.0 mg/kg/injection, schedule: Q04DX003 (sc), vehicle: steriod suspending solution): 101 % of control
T/C (dose: 150.0 mg/kg/injection, schedule: Q01DX009 (sc), vehicle: steriod suspending solution): 95 % of control
T/C (dose: 200.0 mg/kg/injection, schedule: Q04DX003 (sc), vehicle: steriod suspending solution): 108 % of control

COC1OC(C)C(O)C(O)[CH]1[Hg][O]C(C)=O (configuration not stated)
T/C (dose: 3.12 mg/kg/injection, schedule: Q01DX009 (ip), vehicle: saline): 113 % of control
T/C (dose: 5.0 mg/kg/injection, schedule: Q01DX001 (ip), vehicle: saline): 110 % of control
T/C (dose: 6.25 mg/kg/injection, schedule: Q01DX009 (ip), vehicle: saline): 89 % of control
T/C (dose: 6.25 mg/kg/injection, schedule: Q04DX003 (ip), vehicle: saline): 102 % of control
T/C (dose: 10.0 mg/kg/injection, schedule: Q01DX001 (ip), vehicle: saline): 103 % of control
T/C (dose: 12.5 mg/kg/injection, schedule: Q04DX003 (ip), vehicle: saline): 106 % of control

CN(C)C1c2cc(Br)ccc2-c2ccc([N+](=O)[O-])cc21 (configuration not stated)
T/C (dose: 100.0 mg/kg/injection, schedule: Q01DX001 (ip), vehicle: carboxymethylcellulose (CMC)): 94 % of control
T/C (dose: 200.0 mg/kg/injection, schedule: Q01DX001 (ip), vehicle: carboxymethylcellulose (CMC)): 103 % of control
T/C (dose: 400.0 mg/kg/injection, schedule: Q01DX001 (ip), vehicle: carboxymethylcellulose (CMC)): 100 % of control

CC(C)C[CH2][Pb]([CH2]CC(C)C)([CH2]CC(C)C)[O]C(=O)C(Cl)(Cl)Cl
T/C (dose: 3.12 mg/kg/injection, schedule: Q01DX009 (ip), vehicle: Klucel (hydroxypropylcellulose) (HPC)): 98 % of control
T/C (dose: 3.12 mg/kg/injection, schedule: Q04DX002 (ip), vehicle: Klucel (hydroxypropylcellulose) (HPC)): 96 % of control
T/C (dose: 6.25 mg/kg/injection, schedule: Q01DX009 (ip), vehicle: Klucel (hydroxypropylcellulose) (HPC)): 95 % of control
T/C (dose: 6.25 mg/kg/injection, schedule: Q04DX002 (ip), vehicle: Klucel (hydroxypropylcellulose) (HPC)): 115 % of control
T/C (dose: 12.5 mg/kg/injection, schedule: Q01DX009 (ip), vehicle: Klucel (hydroxypropylcellulose) (HPC)): 98 % of control
T/C (dose: 12.5 mg/kg/injection, schedule: Q04DX002 (ip), vehicle: Klucel (hydroxypropylcellulose) (HPC)): 93 % of control and 87 % of control

BrC1CCCCCCC1Br (configuration not stated)
T/C (dose: 25.0 mg/kg/injection, schedule: Q04DX003 (ip), vehicle: saline): 102 % of control
T/C (dose: 50.0 mg/kg/injection, schedule: Q04DX003 (ip), vehicle: saline): 96 % of control
T/C [9]: 91 % of control

C/C(=C\COc1ccc(C)cc1)CC/C=C(\C)CCC1OC1(C)C (configuration not stated)
T/C (dose: 50.0 mg/kg/injection, schedule: Q04DX002 (ip), vehicle: saline with Tween-80): 108 % of control
T/C (dose: 100.0 mg/kg/injection, schedule: Q04DX002 (ip), vehicle: saline with Tween-80): 108 % of control
T/C (dose: 200.0 mg/kg/injection, schedule: Q04DX002 (ip), vehicle: saline with Tween-80): 92 % of control

CS(=O)(=O)OCC(=O)NCC(O)CNC(=O)COS(C)(=O)=O
T/C (dose: 75.0 mg/kg/injection, schedule: Q01DX015 (ip), vehicle: saline): 151 % of control
T/C (dose: 80.0 mg/kg/injection, schedule: Q01DX009 (ip), vehicle: saline): 153 % of control
T/C (dose: 120.0 mg/kg/injection, schedule: Q01DX009 (ip), vehicle: saline): 180 % of control
T/C (dose: 150.0 mg/kg/injection, schedule: Q01DX015 (ip), vehicle: saline): 164 % of control
T/C (dose: 180.0 mg/kg/injection, schedule: Q01DX009 (ip), vehicle: saline): 156 % of control and 164 % of control

CCOC(=O)c1cnc(NN)nc1Nc1cc(Cl)cc(Cl)c1
T/C [6]: 90 % of control

CCCCCCCCCCCC(=O)[O][Pb]([CH2]CCC)([CH2]CCC)[O]C(=O)CCCCCCCCCCC
T/C (dose: 6.25 mg/kg/injection, schedule: Q04DX002 (ip), vehicle: gum acacia): 95 % of control
T/C (dose: 12.5 mg/kg/injection, schedule: Q04DX002 (ip), vehicle: gum acacia): 92 % of control and 98 % of control
T/C (dose: 25.0 mg/kg/injection, schedule: Q04DX002 (ip), vehicle: gum acacia): 88 % of control

N#Cc1cnn(C(N)=O)c1N
T/C [1]: 100 % of control
T/C [2]: 95 % of control
T/C [7]: 100 % of control

CC(C)(C)[Si](O)C(C)(C)C
T/C (dose: 75.0 mg/kg/injection, schedule: Q01DX001 (ip), vehicle: saline): 91 % of control
T/C (dose: 150.0 mg/kg/injection, schedule: Q01DX001 (ip), vehicle: saline): 98 % of control
T/C (dose: 300.0 mg/kg/injection, schedule: Q01DX001 (ip), vehicle: saline): 96 % of control

Cc1cc(Nc2ccc(C)c(Cl)c2)nc(N)n1
T/C (dose: 100.0 mg/kg/injection, schedule: Q01DX Z (ip), vehicle: methylcellulose (MC)): 89 % of control

CC(C)(C)CC(C)(C)c1ccc(OCCO)cc1
T/C (dose: 50.0 mg/kg/injection, schedule: Q01DX009 (ip), vehicle: saline): 97 % of control
T/C (dose: 100.0 mg/kg/injection, schedule: Q01DX009 (ip), vehicle: saline): 91 % of control
T/C [9]: 107 % of control
T/C (dose: 200.0 mg/kg/injection, schedule: Q04DX003 (ip), vehicle: saline): 101 % of control

O=C(CC(O)c1ccccc1)Nc1ccccn1 (configuration not stated)
T/C (dose: 100.0 mg/kg/injection, schedule: Q01DX001 (ip), vehicle: saline): 98 % of control
T/C (dose: 200.0 mg/kg/injection, schedule: Q01DX001 (ip), vehicle: saline): 102 % of control
T/C (dose: 400.0 mg/kg/injection, schedule: Q01DX001 (ip), vehicle: saline): 93 % of control
